# Positions count from the first letter of the chain named. In names and notes the source's numbering stands. Read-outs that look alike come from different tables or passages of the source.
# T1: Clostridium autoethanogenum BDH (2,3-butanediol dehydrogenase) variant BDH:S199A, SEQ ID NO: 16 (Clostridium autoethanogenum, UniProt A0ABM5NRF0, S199A)
# T1 sequence (A0ABM5NRF0 1-351 S199A): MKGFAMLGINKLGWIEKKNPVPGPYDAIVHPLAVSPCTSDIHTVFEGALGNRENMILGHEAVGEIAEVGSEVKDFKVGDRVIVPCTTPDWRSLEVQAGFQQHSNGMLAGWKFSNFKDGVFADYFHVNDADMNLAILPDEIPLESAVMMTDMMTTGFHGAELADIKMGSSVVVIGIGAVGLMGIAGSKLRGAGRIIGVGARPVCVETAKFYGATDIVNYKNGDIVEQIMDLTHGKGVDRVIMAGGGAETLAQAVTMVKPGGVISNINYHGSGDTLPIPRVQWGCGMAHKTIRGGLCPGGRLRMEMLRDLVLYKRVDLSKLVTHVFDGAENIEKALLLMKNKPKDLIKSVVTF
# T2: Clostridium autoethanogenum BDH (2,3-butanediol dehydrogenase), wild type, SEQ ID NO: 14 (Clostridium autoethanogenum, UniProt A0ABM5NRF0)
# T2 sequence (A0ABM5NRF0 1-351): T1 sequence (A0ABM5NRF0 1-351 S199A) with A199S
# B1: Clostridium autoethanogenum BDH (2,3-butanediol dehydrogenase), wild type, SEQ ID NO: 14 (Clostridium autoethanogenum DSM 10061) (protein)
# chain: T1 sequence (A0ABM5NRF0 1-351 S199A) with A199S
# B2: Clostridium autoethanogenum BDH (2,3-butanediol dehydrogenase) variant BDH:S199A, SEQ ID NO: 16 (Clostridium autoethanogenum DSM 10061; S199A) (protein)
# chain: T1 sequence (A0ABM5NRF0 1-351 S199A)
# Columns and labels:
# [1] = system: Lactobacillus brevis DDH (diol dehydratase), wild type, SEQ ID NO: 18; settings: substrate 2,3-butanediol, coenzyme B12; cited from earlier work
# [2] = biological target: T1, Clostridium autoethanogenum BDH (2,3-butanediol dehydrogenase) variant BDH:S199A, SEQ ID NO: 16; assay: kinetic parameters of BDH:S199A; format: biochemical; settings: for kcat / kcat/Km: pH 7.5, room temperature
# Description: (§1) The kinetic parameters of EtDH and EtDH:D46G were identified by reacting the EtDH and EtDH:D46G with a reaction mixture containing 100 mM glycine-NaOH buffer solution (pH 9.5), 5 mM Mg^2+, 3 mM NAD^+/NADP^+ and 0.5 to 100 mM ethanol at room temperature. The kinetic parameters of FLS and variants thereof were identified by reacting FLS and variants thereof with a reaction mixture containing 100 mM phosphate buffer solution (pH 8.0), 1 mM Mg^+, 0.1 mM TPP and 0.5 to 20 mM acetaldehyde at room temperature. The kinetic parameters of BDH and BDH:S199A were identified by reacting BDH and BDH:S199A with a reaction mixture containing 50 mM Tris-HCl buffer solution (pH 7.5), 0.2 mM NADPH, 1 mM DTT; 0.5 to 100 mM acetoin or 0.5 to 10 mM butanone at room temperature. The Km and kcat values were identified using nonlinear regression fitting of the Michaelis-Menten equation and the fitting were repeated three times.
# (§2) In order to compare the catalytic efficiencies via measurement of kinetic parameters of cascade enzymes and variants thereof in accordance with the present disclosure, the following experiment was performed. Specifically, the kinetic parameters of EtDH and EtDH:D46G were identified by reacting EtDH and EtDH:D46G with a reaction mixture containing 100 mM glycine-NaOH buffer solution (pH 9.5), 5 mM Mg^2+, 3 mM NAD^+/NADP^+ and 0.5 to 100 mM ethanol at room temperature. The kinetic parameters of FLS and variants thereof were identified by reacting FLS and variants thereof with a reaction mixture containing 100 mM phosphate buffer solution (pH 8.0), 1 mM Mg^+, 0.1 mM TPP and 0.5 to 20 mM acetaldehyde at room temperature. The kinetic parameters of BDH and BDH:S199A were identified by reacting BDH and BDH:S199A with a reaction mixture containing 50 mM Tris-HCl buffer solution (pH 7.5), 0.2 mM NADPH, 1 mM DTT; and 0.5 to 100 mM acetoin or 0.5 to 10 mM butanone at room temperature. Km and kcat values as substrate affinity were identified using nonlinear regression fitting of the Michaelis-Menten equation and the fitting were repeated three times. The test results of DDH and NOX were compared with previous results [(S. Kwak, et al., Bioresource Technol., 2013, 135, 432), and (M. Kopke, et al., Appl. Environ. Microbiol., 2014, 80, 3394)].
# [3] = biological target: T2, Clostridium autoethanogenum BDH (2,3-butanediol dehydrogenase), wild type, SEQ ID NO: 14; assay: kinetic parameters of BDH; format: biochemical; settings: coenzyme NADH, pH 7.5, room temperature
# [4] = system: Cupriavidus necator EtDH (ethanol dehydrogenase) variant EtDH:D46G, SEQ ID NO: 6; settings: pH 9.5, room temperature
# Description: as §1, §2
# [5] = system: Cupriavidus necator EtDH (ethanol dehydrogenase), wild type, SEQ ID NO: 4; settings: substrate ethanol, pH 9.5, room temperature
# Description: as §1, §2
# [6] = system: Lactobacillus rhamnosus NOX (NADH oxidase), SEQ ID NO: 2; settings: substrate O2, coenzyme NADH; cited from earlier work
# [7] = substrate: CCC(C)=O; assay: kinetic parameters of BDH; format: biochemical, Clostridium autoethanogenum; settings: other: substrate butanone, coenzyme NADPH (0.2 mM), pH 7.5, room temperature
# [8] = substrate: CC(=O)C(C)O; assay: kinetic parameters of BDH; format: biochemical, Clostridium autoethanogenum; settings: other: substrate acetoin, coenzyme NADPH (0.2 mM), pH 7.5, room temperature
# [9] = substrate: CCC(C)=O; assay: kinetic parameters of BDH:S199A; format: biochemical, Clostridium autoethanogenum; settings: other: substrate butanone, coenzyme NADPH (0.2 mM), pH 7.5, room temperature
# [10] = substrate acetoin, coenzyme NADH
# [11] = substrate acetoin, coenzyme NADPH (0.2 mM)
# [12] = substrate butanone, coenzyme NADH
# [13] = second line of EtDH:D46G, coenzyme printed NAD^+
# [14] = substrate ethanol, coenzyme NAD^+ (3 mM)
molecule,measurement,setting,value
"C[C@H](O)[C@@H](C)O [2,3-butanediol]",Km,[1],10400 µM
same,kcat,[1],35 s⁻¹
same,kcat/Km,[1],3400 M⁻¹ s⁻¹
CC(=O)C(C)O (stereo not shown) [Acetoin],kcat,[2]; [10],0 s⁻¹
same,kcat/Km,[2]; [10],0 M⁻¹ s⁻¹
same,kcat,[2]; [11],224.3 ± 9.72 s⁻¹
same,kcat/Km,[2]; [11],19310 M⁻¹ s⁻¹
same,kcat,[3]; substrate acetoin,0 s⁻¹
same,kcat/Km,[3]; substrate acetoin,0 M⁻¹ s⁻¹
CCC(C)=O [Butanone],kcat,[2]; [12],0 s⁻¹
same,kcat/Km,[2]; [12],0 M⁻¹ s⁻¹
same,catalytic efficiency compared to wild-type BDH,"[2]; substrate butanone, coenzyme NADPH",increases catalytic efficiency
same,kcat,[3]; substrate butanone,0 s⁻¹
same,kcat/Km,[3]; substrate butanone,0 M⁻¹ s⁻¹
CCO [Ethanol],Km,[4]; [13],600 ± 20 µM
same,kcat,[4]; [13],0.99 ± 0.03 s⁻¹
same,kcat/Km,[4]; [13],1650 M⁻¹ s⁻¹
same,Km,[4]; [14],570 ± 30 µM
same,kcat,[4]; [14],5.85 ± 0.08 s⁻¹
same,kcat/Km,[4]; [14],9970 M⁻¹ s⁻¹
same,kcat,[5]; coenzyme NADP^+ (3 mM),0 s⁻¹
same,kcat/Km,[5]; coenzyme NADP^+ (3 mM),0 M⁻¹ s⁻¹
same,Km,[5]; coenzyme NAD^+ (3 mM),370 ± 50 µM
same,kcat,[5]; coenzyme NAD^+ (3 mM),6.28 ± 0.11 s⁻¹
same,kcat/Km,[5]; coenzyme NAD^+ (3 mM),17090 M⁻¹ s⁻¹
O=O [O2],kcat,[6],218.7 s⁻¹
same,kcat/Km,[6],3.77e+07 M⁻¹ s⁻¹
B1,Km,[7],1940 ± 50 µM
same,kcat,[7],29.9 ± 1.02 s⁻¹
same,kcat/Km,[7],15400 M⁻¹ s⁻¹
same,Km,[8],84560 ± 7960 µM
B2,Km,[9],1080 ± 90 µM
same,kcat,[9],40.8 ± 1.42 s⁻¹
same,kcat/Km,[9],37800 M⁻¹ s⁻¹

# Reference: patent US11441142B2, “FLS variant having increased activity” (KONKUK UNIVERSITY INDUSTRIAL COOPERATION CORPORATION, priority 2017, dated 2022)
